Laboratory results published in patent US20220218833A1, “PLATELET-FACILITATED DELIVERY OF THERAPEUTIC COMPOUNDS” (CSTS Health Care Inc., priority 2019, published 2022).
Entries after “also recorded” stand apart in the source; their conditions may differ. Where no end group is shown, it is not given here.

Key:
isolated platelets = test: Platelet loading of Alexa647-labeled peptides, decrease in supernatant fluorescence; assay type: cell-based; conditions: for absorbance of supernatant, complete versus loaded measurements (loading into platelets): Alexa647-labeled peptides co-incubated with isolated platelets at 37° C. for one hour, FIG. 1A; for loading of attached cargo into platelets, loaded condition normalized to complete condition: Alexa647 as cargo, FIG. 1B
Description: Alexa647-labeled GAG-binding peptides, identified in FIG. 1A and FIG. 1B as PAL1 and PAL2 and an Alexa647-labeled control peptide (a charge-free ligand (CFL) which served as a negative control), were tested for their binding affinity for glycosaminoglycans, such as chondroitin sulfate, and their abilities to enter platelets.
Alexa647-labeled peptides or Alexa647 alone were co-incubated with isolated platelets at 37° C. for one hour to allow for platelet loading. The respective platelet-loading ability was indicated by a decrease in fluorescence in supernatant following the incubation. For controls, identical experiments were performed without the incubation period (noted as “complete” in the figure). Platelets following co-incubation were then centrifuged at 800 g for 10-minutes to separate platelets from supernatant (noted as “loaded” in the figure).
FIG. 1B represents the data in FIG. 1A normalized for each peptide experiment, i.e., normalization of a loaded condition to its complete condition.

[1] = system: alpha granules of platelets; test: Confocal microscopy of Alexa647-labeled peptides with PF4 alpha granule marker; assay type: cell-based; conditions: for loading of attached cargo into alpha granules of platelets (Alexa647 intensities for each ROI): ROIs selected on PF4 intensity, FIG. 2B
Description: To confirm that the Alexa647-labeled GAG-binding peptides were loaded into alpha granules of platelets, confocal microscopy was used. The platelets that were centrifuged in the experiments of FIG. 1A and FIG. 1B, were fixed in 2% paraformaldehyde and settled onto glass coverslips. After permeabilization, immunofluorescence staining was performed against PF4, which is a marker for alpha granules of platelets. Platelets were stained with Alexa568-secondary antibody. Images were collected through a Nikon-A1 laser-scanning microscope equipped with a 60× oil objective lens.
FIG. 2A are representative images with PF4 staining shown in red (left column) and the Alexa647 signal (from the free Alexa647, Alexa647-labeled GAG-binding peptide, or Alexa647-labeled CFL; middle column) shown in purple. Images were only adjusted for brightness and contrast for display. n>5 images were acquired for each experiment and regions of interest (ROIs) were selected based on PF4 intensity.
The Alexa647 intensities for each ROI were measured using ImageJ and plotted in box and whisker graph using Prism 8.

[2] = Affinity chromatography of peptides; assay type: binding; conditions: FIG. 4
Description: Additionally, the binding affinities for the two illustrative GAG-binding peptides and the CFL to heparan sulfate (HS) was determined using affinity chromatography.

platelets = test: Cargo loading into platelets contacted with a non-specific GAG inhibitor; assay type: cell-based; conditions: platelets contacted with the inhibitor
Excerpt: The present invention is based, in part, on the discovery that cargo can be loaded in alpha granules and that this loading is not receptor-mediated. Instead, cargo loading into platelets, and specifically into their alpha granules, relies on the binding to glycosaminoglycans (GAG) in the alpha granules of the platelets.

Row | binding to heparan sulfate (HS) [2] | Compound | absorbance of supernatant, complete versus loaded measurements (loading into platelets) (isolated platelets) | loading of attached cargo into platelets, loaded condition normalized to complete condition (isolated platelets) | loading of attached cargo into alpha granules of platelets (Alexa647 intensities for each ROI) [1] | colocalization of alpha granule marker PF4 and Alexa647 signal ([1]; merged confocal images, FIG. 2A) | relative affinity for HS, PAL2 versus PAL1 [2] | amount of cargos loaded into platelets (platelets)
1 | did not bind to HS | CFL: control peptide, a charge-free ligand, SEQ ID NO: 14, negative control (EGGIWFPYGGF) [reference compound] | did not change | unable to direct loading of the cargo into platelets | do not load into platelets | Co-localization was not observed |  | 
2 |  | RFRWPYRIREF (SEQ ID NO: 2) (also: Alexa647 label) [PAL2] | decrease in absorbance | facilitates loading of an attached cargo into platelets | facilitates loading of an attached cargo into alpha granules of platelets |  | greater affinity for HS than PAL′; also recorded: binds HS tighter than PALL | 
3 |  | Cc1cc(N)c2cc(NC(=O)Nc3ccc4nc(C)cc(N)c4c3)ccc2n1 [Surfen] |  |  |  |  |  | reduced amounts of cargos are loaded into platelets
4 |  | ERRIWFPYRRF (SEQ ID NO: 1) (also: Alexa647 label) [PAL1] | decrease in absorbance | facilitates loading of an attached cargo into platelets | facilitates loading of an attached cargo into alpha granules of platelets |  |  | 
